Test results: the OPERA property sets (Mansouri et al. 2018)

Settings: for log10 biotransformation half-life (days) / log10 BCF: fish

Compound | melting point [°C] | boiling point [°C] | other results
CC(C)CC(=O)C=Cc1ccccc1 | 43 | – | –
NCc1ccc(Br)cc1 | 20 | 250 | –
CCN(CC)CCOC(=O)c1ccc(N)cc1Cl.Cl | 177 | – | –
Cc1cccc2c1C=CC2 | – | 209 | –
c1ccc(OCC2CO2)cc1 (stereo not drawn) | 3.5 | 245 | log10 vapour pressure (mmHg): -2; ready biodegradability: not readily biodegradable
C[C@H]1/C(=C\C(=O)OCCN(C)C)CC[C@H]2[C@H]1C(=O)C[C@H]1C(C)(C)[C@@H](O)CC[C@]21C | 142 | – | –
COc1cc(C=O)cc(OC)c1O | 113 | – | ready biodegradability: readily biodegradable
CCOCN(C(=O)CCl)c1c(C)cccc1CC | – | – | log10 Koc (L/kg): 2.32
C=CCCC#N | – | 140 | –
CCC(C)COC (stereo not drawn) | – | 90 | –
Clc1cc(-c2c(Cl)c(Cl)cc(Cl)c2Cl)c(Cl)c(Cl)c1Cl | – | – | log10 Henry constant (atm·m³/mol): -5; log10 biotransformation half-life (days): 2.47
OC1[C@@H](O)[C@H](O)C[C@@H](O)[C@@H]1O (stereo partly drawn) | 236 | – | –
CN(C)c1ccncc1 | 112 | – | –
Brc1ccsc1Br | -17.5 | 218 | –
N#CCc1ccccc1C(F)(F)F | 33 | – | –
CC(O)CN (stereo not drawn) | 25 | 160 | log10 vapour pressure (mmHg): -0.328
Cc1ccc(CN)cc1 | 12.5 | 195 | –
SCCS | -41.2 | 146 | log10 vapour pressure (mmHg): 0.749
CCOCC(O)CO (stereo not drawn) | – | 222 | –
CCC(Cc1c(I)cc(I)c(N)c1I)C(=O)O (stereo not drawn) | 155 | – | –
CCOCC(C)O (stereo not drawn) | – | 131 | –
N#CC(F)(Cl)Cl | -110 | 33 | –
CN(N=O)c1ccccc1 | 14.7 | – | –
Cc1ccc(N)c(C)c1 | -14.3 | 214 | log10 vapour pressure (mmHg): -0.876; ready biodegradability: not readily biodegradable
O=S(=O)(c1ccc(O)cc1)c1ccc(O)cc1 | 240 | – | ready biodegradability: not readily biodegradable

Compound | melting point [°C] | boiling point [°C] | other results
CC(C)=CCl | – | 68 | –
O=C(O)CCCC(=O)c1ccccc1 | 127 | – | –
CN(C(=O)N(C)c1ccccc1)c1ccccc1 | 122 | 350 | –
Cc1cc(C(=O)NCCc2ccc(S(=O)(=O)NC(=O)NN3CCCCCC3)cc2)no1 | 189 | – | –
CC(=O)N(C)c1ccccc1 | 103 | 256 | ready biodegradability: not readily biodegradable; log10 BCF: 0.18; log10 biotransformation half-life (days): -1.12
CC(C)(C)SC(C)(C)C | -9 | 149 | –
C=CCCCCO | – | – | ready biodegradability: readily biodegradable
CCCCCCC(C=O)=Cc1ccccc1 | 39.2 | – | –
CC=CCCl | – | 80.7 | log10 vapour pressure (mmHg): 1.84
N#CCCl | – | 126 | log10 vapour pressure (mmHg): 1.18
CCC(c1ccc(O)cc1)c1ccc(O)cc1 | 132 | – | –
CCc1cc(C)cc(O)c1 | 51.6 | 236 | log10 vapour pressure (mmHg): -2.06
CCCCC(C)C(C)CC (stereo not drawn) | – | 163 | –
Cc1cc(N)ccc1N=Nc1ccc([N+](=O)[O-])cc1 | – | – | log10 vapour pressure (mmHg): -9.15
O=C(Nc1ccccc1)NC1CCCC1 | – | – | log10 Koc (L/kg): 1.93
C=CCN | -88.2 | 53.3 | log10 vapour pressure (mmHg): 2.38
CCOC(=O)c1ccc(OC)c(OC)c1 | 43.5 | 296 | –
CCOc1cc(C=O)ccc1O | 77.5 | 294 | log10 vapour pressure (mmHg): -4.98; ready biodegradability: readily biodegradable
CCCCCCCC | -56.8 | 126 | log10 Koa: 3.35; log10 biodegradation half-life (days): 0.954; log10 vapour pressure (mmHg): 1.15; ready biodegradability: readily biodegradable
N#Cc1c(Cl)c(Cl)c(Cl)c(Cl)c1C#N | – | – | ready biodegradability: not readily biodegradable
CC(=O)C#N | – | 92.3 | –
COCCOc1c(OC)cc(Cc2cnc(N)nc2N)cc1OC | 154 | – | –
Fc1ccc(F)cc1 | -13 | 89 | log10 vapour pressure (mmHg): 1.81
C(COCCOCC1CO1)OCCOCC1CO1 (stereo not drawn) | -13 | – | –
CCC(C)(C)C | -99 | 49.7 | log10 biodegradation half-life (days): 1.28; log10 vapour pressure (mmHg): 2.5

Compound | melting point [°C] | boiling point [°C] | other results
Clc1c(Cl)c(Cl)c2c(oc3c(Cl)c(Cl)c(Cl)c(Cl)c32)c1Cl | 258 | – | log10 Koa: 11.9; log10 vapour pressure (mmHg): -11.4; log10 BCF: 2.89; log10 biotransformation half-life (days): 1.22
O=C(Nc1ccc2nn(C3CCCCC3)nc2c1)c1ccccc1 | 212 | – | –
CCCCCCCCCCCCCCCN | 37.3 | 308 | –
CCOC(=O)C(C)(C)Oc1ccc(Cl)cc1 | – | – | ready biodegradability: readily biodegradable
CCOC(=O)C(CCC(C)C)C(=O)OCC | – | 241 | –
CCCCCCCCCCCI | – | – | log10 vapour pressure (mmHg): -2.35
Brc1ccc(Oc2ccccc2)cc1Br | – | – | log10 Koa: 8.55
CCC[C@@H](O)CC | – | 135 | log10 vapour pressure (mmHg): 0.682
Cc1ccc2nccc(C)c2c1 | 22 | 274 | –
CC(=O)O[Si](C)(OC(C)=O)OC(C)=O | 40.5 | – | –
Fc1c(F)c(F)c(Cl)c(F)c1F | – | 118 | log10 vapour pressure (mmHg): 1.25
COc1cc(Cl)c(Cl)c(Cl)c1 | – | – | log10 BCF: 3.09
O=S(=O)(Cl)c1cccc2ccccc12 | 68 | – | –
CC(=O)CC(=O)C(F)(F)F | – | 106 | –
NNc1cc(Cl)ccc1Cl | 102 | – | –
C=CC(=O)NC(C)C | 64 | – | –
N#C[C@H](O[C@@H]1O[C@H](CO[C@@H]2O[C@H](CO)[C@@H](O)[C@H](O)[C@H]2O)[C@@H](O)[C@H](O)[C@H]1O)c1ccccc1 | 224 | – | –
CC(Br)CCBr (stereo not drawn) | – | 174 | –
Cc1c(Cl)ccc(OC(C)C(O)=Nc2ccccc2)c1Cl (stereo not drawn) | 146 | – | –
CC(C)C(=O)O | -46 | 154 | log10 Henry constant (atm·m³/mol): -6.05; log10 vapour pressure (mmHg): 0.258; ready biodegradability: readily biodegradable
CC(CC(=O)O)CC(=O)O | 87 | – | –
CCN(CC)C(=O)C(Cl)=C(C)OP(=O)(OC)OC | – | – | log10 Koc (L/kg): 0.85
Cc1ccc(O)cc1[N+](=O)[O-] | – | – | ready biodegradability: not readily biodegradable; log10 BCF: 1; log10 biotransformation half-life (days): -0.8
O=C(O)[C@H]1CC[C@H]1C(=O)O | 131 | – | –
CC1(C)CCCC(O)C1 (stereo not drawn) | 11.5 | 185 | –

Compound | melting point [°C] | boiling point [°C] | other results
O=[N+]([O-])c1ccccc1Nc1ccccc1 | 75 | – | log10 vapour pressure (mmHg): -5
Brc1ccc2ncccc2c1 | 24 | 281 | –
COC(=O)c1ccccc1O[C@@H]1O[C@H](CO[C@@H]2OC[C@@H](O)[C@H](O)[C@H]2O)[C@@H](O)[C@H](O)[C@H]1O | 180 | – | –
C=CC(=C)Cl | -130 | 59.4 | log10 vapour pressure (mmHg): 2.33
O=C(O)CCCCCC(=O)O | 106 | 342 | log10 vapour pressure (mmHg): -7.05
N#CC(C#N)=C1c2cc([N+](=O)[O-])ccc2-c2c1cc([N+](=O)[O-])cc2[N+](=O)[O-] | 267 | – | –
CC(=O)OC(C(=O)Cl)c1ccccc1 (stereo not drawn) | 36 | – | –
CCOS(=O)(=O)Cl | – | 152 | –
CC(C)C(=O)Cl | -90 | 92 | –
C=Cc1ccccc1C=C | – | – | ready biodegradability: not readily biodegradable
COc1ccccc1-c1ccccc1OC | – | 308 | –
CC(=O)OCCO | – | 188 | –
NCc1ccncc1 | -7.6 | 230 | –
CCCCCCCCCCCCCCCCCO | 53.8 | 333 | ready biodegradability: readily biodegradable
O=C(OC(Cl)(Cl)Cl)C(Cl)(Cl)Cl | 34 | 192 | –
Clc1cc(Cl)c2cc(Cl)cc(Cl)c2c1 | 180 | – | log10 Koa: 7.9
CC=Cc1ccccc1 | -28.2 | 177 | –
CCCCC1C(=O)NN(c2ccccc2)C1=O (stereo not drawn) | 102 | – | –
NC(=O)OCc1ccccc1 | 88 | – | –
CCOCOc1ccc(C(=O)Nc2cccc(Cl)c2Cl)cc1 | 92.5 | – | –
CCN1C[C@]2(COC)[C@H](O)C[C@H](OC)[C@]34C1[C@H]([C@H](OC)[C@H]23)[C@]1(O)[C@H]2[C@@H](O)[C@](O)(C[C@H]24)[C@@H](OC)[C@@H]1O | 132 | – | –
C=CC/C=C/C/C=C/C/C=C/C | – | – | ready biodegradability: not readily biodegradable
O=C1CCc2ccccc2N1 | 164 | – | –
CN(C)CC(=O)O | 186 | – | –
O=CNNC=O | 156 | – | log10 vapour pressure (mmHg): -6.13

Compound | melting point [°C] | boiling point [°C] | other results
Nc1cccc(N)n1 | 122 | 285 | ready biodegradability: not readily biodegradable
CC1(C)[C@@H](O)CC[C@]2(C)[C@H]3C(=O)C=C4[C@@H]5C[C@@](C)(C(=O)O)CC[C@]5(C)CC[C@@]4(C)[C@]3(C)CC[C@@H]12 | 296 | – | –
CN(C)C(=S)Cl | 42.5 | – | –
CCCCCCCCCCCCCCCCCCCCCCCCCCCCCCCCC | 72 | – | log10 biodegradation half-life (days): 2.56; log10 vapour pressure (mmHg): -10.4
COc1ccc(C(c2ccc(OC)cc2)C(Cl)(Cl)Cl)cc1 | 87 | 346 | log10 Henry constant (atm·m³/mol): -6.69; log10 Koc (L/kg): 4.9; log10 BCF: 2.5
Nc1ccccc1[N+](=O)[O-] | 71 | 284 | log10 Henry constant (atm·m³/mol): -7.23; log10 vapour pressure (mmHg): -2.56; ready biodegradability: not readily biodegradable; log10 BCF: 1; log10 biotransformation half-life (days): -0.46
c1ccc(C2=NCCN2)cc1 | 96.5 | – | –
c1ccc(CCCCc2ccccc2)cc1 | 52.5 | 317 | –
CS(=O)(=O)Cl | – | 162 | –
CC[C@H]1CN2CC[C@]3(C(=O)Nc4ccccc43)[C@@H]2C[C@@H]1/C(=C\OC)C(=O)OC | 216 | – | –
CCCCCCCCCCCCCCCC(=O)OCCC | 20.4 | – | –
Brc1cc(Br)c(Br)c(Oc2c(Br)c(Br)c(Br)c(Br)c2Br)c1Br | – | – | log10 BCF: 5.57
O=C(OCC1CCC2OC2C1)C1CCC2OC2C1 (stereo not drawn) | -37 | – | –
c1ccc(Nc2cccc3ccccc23)cc1 | 62 | – | ready biodegradability: not readily biodegradable; log10 BCF: 3.23
Sc1ccccc1Cl | – | 206 | –
CNCCc1ccccc1 | – | 206 | –
FC(F)(F)C(Cl)(Cl)C(Cl)(Cl)C(F)(F)F | 83.5 | 131 | –
CC(=O)OC[C@]12C[C@H](OC(=O)CC(C)C)C(C)=C[C@H]1O[C@@H]1[C@H](O)[C@@H](OC(C)=O)[C@@]2(C)[C@]12CO2 | 152 | – | –
C#C[C@]1(O)CC[C@H]2[C@@H]3CCC4=Cc5oncc5C[C@]4(C)[C@H]3CC[C@@]21C | 226 | – | –
O=C(O)C(F)(F)C(F)(F)C(F)(F)F | -17.5 | 121 | log10 vapour pressure (mmHg): 0.804
CN/C(=N\C#N)NCCSCc1nc[nH]c1C | 142 | – | –
